Laboratory results: patent US20120100361A1, “ANTISEPTIC COMPOSITION FOR ENGINEERING WOOD PRODUCTION, AND ENGINEERING WOOD” (SDS BIOTECH K.K., priority 2009, published 2012)

Legend:
Fomitopsis palustris [1] = test: Test for antiseptic effects of preservative LVL (JIS K1571:2004); assay type: cell-based; conditions: phenol resin
Method: (§1) 1000 g of the phenol resin-based glue Deernol D-117 (manufactured by Oshika Corporation), 70 g of wheat flour and 100 g of calcium carbonate were mixed and well kneaded. A solution of each of the compounds of Example 1 and Comparative Example 1, 2 and 5 to 25 was added to the kneaded product so that the final concentrations of the compound in the wood become 150, 100, 50 and 25 g/m^3 and further kneaded. 18 g of the above kneaded product was applied onto each of the surface of glue line of the three Radiata pine veneer sheets having an area of 30 x 30 cm and thickness of 3 mm. After bonding the three sheets to each other, the sheets were subjected to cold pressing at room temperature for 20 minutes and the thermal pressure of 140° C. (10 kgf/cm^2) was applied to the sheets for two minutes to obtain the target LVL. Each of the prepared LVL was processed into the size of 20×20×9 mm to serve as a test sample.
(§2) The samples of the plywood and LVL prepared in Preparation Examples 2 and 3 were evaluated by the test for antiseptic effects for the drug pressure treatment according to JIS K1571:2004. The weather resistance operation and the test method for the antiseptic effect were performed according to the above test method.

Trametes versicolor [2] = test: as above; assay type: cell-based; conditions: phenol resin
Method: as §1, §2

fungus cellar soil-bed [3] = test: Fungus cellar soil-bed test of preservative plywood (JIS K1571:2004); conditions: plywood, six months, 25° C., grade 0 sound condition to 5 out of shape due to the decay
Method: (§3) 1000 g of urea melamine resin (PWP-60, manufactured by Oshika Corporation) was added to 180 g of wheat flour and fully kneaded to thereby obtain a kneaded product. 8 g of ammonium chloride was added as a hardening agent to the kneaded product, and a solution of each of the compounds of Example 1 and Comparative Example 1, 2 and 5 to 25 was further added thereto so that the final concentrations of the compound in the wood become 150, 100, 50 and 25 g/m^3 and kneaded. 18 g of the above kneaded product was applied onto each of the bonding plane of the three red lauan veneer sheets having an area of 30 x 30 cm and thickness of 0.85 mm/2.4 mm/0.85 mm. After bonding the three sheets to each other, the sheets were subjected to cold pressing at room temperature for 20 minutes and the thermal pressure of 120° C. (10 kgf/cm^2) was applied to the sheets for two minutes to obtain the target plywood. Each of the prepared plywood was processed into the size of 20×20×4.1 mm to serve as a test sample.
The preservative plywood was prepared in the same manner in Preparation Example 2. Each of the prepared plywood was processed into the size of 8.9 x 8.9×100 mm to serve as a test sample.
(§4) The samples of the plywood and LVL prepared in Preparation Examples 4 and 5 were evaluated by the fungus cellar soil-bed test according to JIS K1571:2004. The weather resistance operation and the test method for the antiseptic effect were performed according to the above test method. The test was carried out for six months setting the test temperature to 25° C. (because the grade average of the decay damage of the non-treated test samples exceeded 2.5 in six months). […] The effect in the glue line treatment was actually investigated with respect to a number of existing antiseptics, and it was confirmed that only epoxyconazole is suitable for the glue line treatment at a low concentration.

Fomitopsis palustris [4] = test: Test for antiseptic effects of preservative plywood (JIS K1571:2004); assay type: cell-based; conditions: plywood, urea melamine resin, Fomitopsis palustris
Method: as §3, §2

Trametes versicolor [5] = test: as above; assay type: cell-based; conditions: plywood, urea melamine resin, Trametes versicolor
Method: as §3, §2

fungus cellar soil-bed [6] = test: Fungus cellar soil-bed test of preservative LVL (JIS K1571:2004); conditions: 25° C., grade 0 sound condition to 5 out of shape due to the decay
Method: as §1
The preservative LVL was prepared in the same manner in Preparation Example 3. Each of the prepared LVL was processed into the size of 9×9×100 mm to serve as a test sample.
as §4

[7] = Test for miscibility with a phenol resin glue; assay type: physicochemical; design: key to Phenol resin status after 60 minutes: ∘: No change; x: Obvious increase in the viscosity was seen and it seems impossible to apply the composition onto the veneer sheet; conditions: 10% (w/w) solution added to phenol resin glue Deernol D-117 kneaded product; viscosity change visually observed for 60 minutes
Method: The following compounds, which are known to have wood preservative activity, are dissolved in methyl ethylene triglycol to reach a concentration of 10% (w/w) to thereby obtain a solution of each of the compounds.
1000 g of phenol resin-based glue Deernol D-117 (manufactured by Oshika Corporation), 70 g of wheat flour and 100 g of calcium carbonate were mixed and well kneaded. Each of the solutions of Example 1 and Comparative Example 1 to 25 was added to 17 g of the kneaded product and mixed well together. The viscosity change of the glue was visually observed for 60 minutes. […] Although a number of documents listed as the prior art documents and the like teach that quaternary ammonium compounds can be applied to the glue line treatment, it is clear that those compounds have a problem for practical use (Comparative Examples 3 and 4). On the other hand, it was confirmed that the other compounds including that of Example has no problem from the viewpoint of compatibility.

[8] = treated amount 25 g/m^3, six months
[9] = treated amount 50 g/m^3, six months
[10] = treated amount 100 g/m^3, six months
[11] = treated amount 150 g/m^3, six months

SMILES	average rate of decrease in weight (Fomitopsis palustris [1]; treated amount 25 g/m^3)	average rate of decrease in weight (Fomitopsis palustris [1]; treated amount 50 g/m^3)	average rate of decrease in weight (Fomitopsis palustris [1]; treated amount 100 g/m^3)	average rate of decrease in weight (Fomitopsis palustris [1]; treated amount 150 g/m^3)	average rate of decrease in weight (Trametes versicolor [2]; treated amount 25 g/m^3)	average rate of decrease in weight (Trametes versicolor [2]; treated amount 50 g/m^3)	average rate of decrease in weight (Trametes versicolor [2]; treated amount 100 g/m^3)	average rate of decrease in weight (Trametes versicolor [2]; treated amount 150 g/m^3)	Grade average of the decay damage of five test samples (fungus cellar soil-bed [3]; treated amount 25 g/m^3)	Grade average of the decay damage of five test samples (fungus cellar soil-bed [3]; treated amount 50 g/m^3)	Grade average of the decay damage of five test samples (fungus cellar soil-bed [3]; treated amount 100 g/m^3)	Grade average of the decay damage of five test samples (fungus cellar soil-bed [3]; treated amount 150 g/m^3)	average rate of decrease in weight (Fomitopsis palustris [4]; treated amount 25 g/m^3)	average rate of decrease in weight (Fomitopsis palustris [4]; treated amount 50 g/m^3)	average rate of decrease in weight (Fomitopsis palustris [4]; treated amount 100 g/m^3)	average rate of decrease in weight (Fomitopsis palustris [4]; treated amount 150 g/m^3)	average rate of decrease in weight (Trametes versicolor [5]; treated amount 25 g/m^3)	average rate of decrease in weight (Trametes versicolor [5]; treated amount 50 g/m^3)	average rate of decrease in weight (Trametes versicolor [5]; treated amount 100 g/m^3)	average rate of decrease in weight (Trametes versicolor [5]; treated amount 150 g/m^3)	other results
CO/C=C(/C(=O)OC)c1ccccc1Oc1cc(Oc2ccccc2C#N)ncn1 [Comparative Example 21, azoxystrobin]	X (The average rate of decrease in weight was 3% or more.)	X (The average rate of decrease in weight was 3% or more.)	X (The average rate of decrease in weight was 3% or more.)	X (The average rate of decrease in weight was 3% or more.)	X (The average rate of decrease in weight was 3% or more.)	X (The average rate of decrease in weight was 3% or more.)	X (The average rate of decrease in weight was 3% or more.)	X (The average rate of decrease in weight was 3% or more.)	3.0	3.0	3.0	2.8	X (The average rate of decrease in weight was 3% or more.)	X (The average rate of decrease in weight was 3% or more.)	X (The average rate of decrease in weight was 3% or more.)	X (The average rate of decrease in weight was 3% or more.)	X (The average rate of decrease in weight was 3% or more.)	X (The average rate of decrease in weight was 3% or more.)	X (The average rate of decrease in weight was 3% or more.)	X (The average rate of decrease in weight was 3% or more.)	Grade average of the decay damage of five test samples (fungus cellar soil-bed [6]; [8]): 3.0; Grade average of the decay damage of five test samples (fungus cellar soil-bed [6]; [9]): 3.6; Grade average of the decay damage of five test samples (fungus cellar soil-bed [6]; [10]): 3.4; Grade average of the decay damage of five test samples (fungus cellar soil-bed [6]; [11]): 2.8; Phenol resin status after 60 minutes [7]: ∘
CCCCNC(=O)OCC#CI [Comparative Example 23, 3-iode-2-propynyl-n-butylcarbamate]	X (The average rate of decrease in weight was 3% or more.)	X (The average rate of decrease in weight was 3% or more.)	X (The average rate of decrease in weight was 3% or more.)	X (The average rate of decrease in weight was 3% or more.)	X (The average rate of decrease in weight was 3% or more.)	X (The average rate of decrease in weight was 3% or more.)	X (The average rate of decrease in weight was 3% or more.)	X (The average rate of decrease in weight was 3% or more.)	2.8	2.8	3.2	2.8	X (The average rate of decrease in weight was 3% or more.)	X (The average rate of decrease in weight was 3% or more.)	X (The average rate of decrease in weight was 3% or more.)	X (The average rate of decrease in weight was 3% or more.)	X (The average rate of decrease in weight was 3% or more.)	X (The average rate of decrease in weight was 3% or more.)	X (The average rate of decrease in weight was 3% or more.)	X (The average rate of decrease in weight was 3% or more.)	Grade average of the decay damage of five test samples (fungus cellar soil-bed [6]; [8]): 3.0; Grade average of the decay damage of five test samples (fungus cellar soil-bed [6]; [9]): 3.4; Grade average of the decay damage of five test samples (fungus cellar soil-bed [6]; [10]): 3.2; Grade average of the decay damage of five test samples (fungus cellar soil-bed [6]; [11]): 2.6; Phenol resin status after 60 minutes [7]: ∘
CCCCCCCCn1sccc1=O [Comparative Example 24, N-octylisothiazolin-3-one]	X (The average rate of decrease in weight was 3% or more.)	X (The average rate of decrease in weight was 3% or more.)	X (The average rate of decrease in weight was 3% or more.)	X (The average rate of decrease in weight was 3% or more.)	X (The average rate of decrease in weight was 3% or more.)	X (The average rate of decrease in weight was 3% or more.)	X (The average rate of decrease in weight was 3% or more.)	X (The average rate of decrease in weight was 3% or more.)	2.8	2.8	2.8	2.8	X (The average rate of decrease in weight was 3% or more.)	X (The average rate of decrease in weight was 3% or more.)	X (The average rate of decrease in weight was 3% or more.)	X (The average rate of decrease in weight was 3% or more.)	X (The average rate of decrease in weight was 3% or more.)	X (The average rate of decrease in weight was 3% or more.)	X (The average rate of decrease in weight was 3% or more.)	X (The average rate of decrease in weight was 3% or more.)	Grade average of the decay damage of five test samples (fungus cellar soil-bed [6]; [8]): 3.0; Grade average of the decay damage of five test samples (fungus cellar soil-bed [6]; [9]): 3.4; Grade average of the decay damage of five test samples (fungus cellar soil-bed [6]; [10]): 3.0; Grade average of the decay damage of five test samples (fungus cellar soil-bed [6]; [11]): 3.2; Phenol resin status after 60 minutes [7]: ∘
